Data reported in US8956999B2, “Herbicides” (Syngenta Limited, priority 2007, dated 2015).

Experiments:
Type in all cases: in vivo
[1] = system: Setaria faberi (SETFA); assay: Example B pre-emergence herbicidal test, glasshouse; conditions: Setaria faberi, 312 h, rate 250 g/ha, evaluated after 13 days, 100=total damage to plant, 0=no damage to plant, read-out: Pre-Emergence Activity SEFTA
Description: (§1) Seeds of a variety of test species were sown in standard soil in pots. After cultivation for one day (pre-emergence) or after 8 days cultivation (post-emergence) under controlled conditions in a glasshouse (at 24/16° C., day/night; 14 hours light; 65% humidity), the plants were sprayed with an aqueous spray solution derived from the formulation of the technical active ingredient in acetone/water (50:50) solution containing 0.5% Tween 20 (polyoxyethelyene sorbitan monolaurate, CAS RN 9005-64-5). The test plants were then grown in a glasshouse under controlled conditions in a glasshouse (at 24/16° C., day/night; 14 hours light; 65% humidity) and watered twice daily. After 13 days for pre and post-emergence, the test was evaluated (100=total damage to plant; 0=no damage to plant). Test Plants: Alopecurus myosuroides (ALOMY), Avena fatua (AVEFA), Setaria faberi (SETFA), Echinochloa crus-galli (ECHCG), Solanum nigrum (SOLNI) and Amaranthus retoflexus (AMARE)

[2] = system: Alopecurus myosuroides (ALOMY); assay: as above; conditions: 312 h, rate 250 g/ha, evaluated after 13 days, 100=total damage to plant, 0=no damage to plant
Description: as §1

[3] = system: Amaranthus retoflexus (AMARE); assay: as above; conditions: Amaranthus retroflexus, 312 h, rate 250 g/ha, evaluated after 13 days, 100=total damage to plant, 0=no damage to plant
Description: as §1

[4] = system: Avena fatua (AVEFA); assay: as above; conditions: 312 h, rate 250 g/ha, evaluated after 13 days, 100=total damage to plant, 0=no damage to plant
Description: as §1

[5] = system: Echinochloa crus-galli (ECHCG); assay: as above; conditions: Echinochloa crus-galli, 312 h, rate 250 g/ha, evaluated after 13 days, 100=total damage to plant, 0=no damage to plant, read-out: Pre-Emergence Activity ECHGG
Description: as §1

[6] = system: Setaria faberi (SETFA); assay: Example B post-emergence herbicidal test, glasshouse; conditions: 312 h, rate 250 g/ha, evaluated after 13 days, read-out: Post-Emergence Activity SEFTA (100=total damage to plant; 0=no damage to plant)
Description: as §1

[7] = system: Alopecurus myosuroides (ALOMY); assay: as above; conditions: 312 h, rate 250 g/ha, evaluated after 13 days, read-out: Post-Emergence Activity ALOMY (100=total damage to plant; 0=no damage to plant)
Description: as §1

[8] = system: Amaranthus retoflexus (AMARE); assay: as above; conditions: Amaranthus retroflexus, 312 h, rate 250 g/ha, evaluated after 13 days, read-out: Post-Emergence Activity AMARE (100=total damage to plant; 0=no damage to plant)
Description: as §1

[9] = system: Avena fatua (AVEFA); assay: as above; conditions: 312 h, rate 250 g/ha, evaluated after 13 days, read-out: Post-Emergence Activity AVEFA (100=total damage to plant; 0=no damage to plant)
Description: as §1

[10] = system: Echinochloa crus-galli (ECHCG); assay: as above; conditions: 312 h, rate 250 g/ha, evaluated after 13 days, read-out: Post-Emergence Activity ECHGG (100=total damage to plant; 0=no damage to plant)
Description: as §1

Compound	pest or weed control at 250 g/ha [1] [%]	pest or weed control at 250 g/ha [2] [%]	pest or weed control at 250 g/ha [3] [%]	pest or weed control at 250 g/ha [4] [%]	pest or weed control at 250 g/ha [5] [%]	pest or weed control at 250 g/ha [6] [%]	pest or weed control at 250 g/ha [7] [%]	pest or weed control at 250 g/ha [8] [%]	pest or weed control at 250 g/ha [9] [%]	pest or weed control at 250 g/ha [10] [%]
Cc1sc(-c2ccc(OC(F)F)cc2Cl)nc1C1C(=O)C(C)(C)OC(C)(C)C1=O [Compound T70]	70	30	0	0	70	90	70	0	10	90
Cc1sc(-c2ccc(Cl)s2)nc1C1C(=O)C(C)(C)OC(C)(C)C1=O [Compound T55]	50	0	0	0	20	60	40	0	0	70
CCc1sc(-c2ccc(Br)cc2)nc1C1C(=O)C(C)(C)OC(C)(C)C1=O [Compound T49]	80	60	0	20	60	100	100	20	100	100
Cc1sc(-c2ccc(OC(F)F)cc2)nc1C1C(=O)C(C)(C)OC(C)(C)C1=O [Compound T60]	70	40	0	0	20	90	50	0	40	90
CC(=O)OC1=C(c2nc(-c3ccc(Br)cc3C)sc2C)C(=O)C(C)(C)OC1(C)C [Compound P6]	100	90	0	80	70	100	100	0	90	100
Cc1sc(-c2ccc(Cl)cc2Cl)nc1C1C(=O)C(C)(C)C(=O)C(C)(C)C1=O [Compound T45]	–	–	–	–	–	70	30	0	0	70
Cc1sc(-c2ccc(Br)cn2)nc1C1=C(OC(=O)C(C)(C)C)C(C)(C)OC(C)(C)C1=O [Compound P5]	0	0	0	0	0	0	0	0	0	0
Cc1nc(-c2ccc(Cl)cc2)sc1C1C(=O)C(C)(C)OC(C)(C)C1=O [Compound T66]	–	–	–	–	–	80	70	0	40	90
CCc1sc(-c2ccc(Cl)cc2)nc1C1C(=O)C2CCC(C)(O2)C1=O (centres unmarked) [Compound T50, 3-[2-(4-chloro-phenyl)-5-ethyl-thiazol-4-yl]-1-methyl-8-oxa-bicyclo[3.2.1]-octane-2,4-dione]	100	90	0	90	100	100	100	0	100	100
Cc1sc(-c2ccc(Cl)c(Cl)c2)nc1C1C(=O)C(C)(C)C(=O)C(C)(C)C1=O [Compound T43]	0	0	0	0	0	0	0	0	0	30
Cc1cc(Br)ccc1-c1nc(C2=C(OC(=O)C3CC3)C(C)(C)OC(C)(C)C2=O)c(C)s1 [Compound P7]	100	70	0	0	80	100	80	0	80	100
CCc1sc(-c2ccc(Br)cc2C)nc1C1C(=O)C(C)(C)OC(C)(C)C1=O [Compound T57]	90	20	0	30	50	100	100	0	90	100
CCc1sc(-c2cc(F)c(Cl)cc2Cl)nc1C1C(=O)C(C)(C)OC(C)(C)C1=O [Compound T65]	–	–	–	–	–	100	90	0	70	100
Cc1sc(-c2ccc(Cl)cc2)cc1C1C(=O)C(C)(C)C(=O)C(C)(C)C1=O [Compound T5]	–	–	–	–	–	50	40	0	0	70
Cc1sc(-c2ccc(F)cc2)cc1C1C(=O)C(C)(C)C(=O)C(C)(C)C1=O [Compound T25]	–	–	–	–	–	20	0	0	0	20
Cc1cc(Cl)ccc1-c1nc(C2C(=O)C(C)(C)C(=O)C(C)(C)C2=O)c(C)s1 [Compound T44]	0	0	0	0	30	–	–	–	–	–
Cc1sc(-c2ccc(C(F)(F)F)cc2)cc1C1C(=O)C(C)(C)C(=O)C(C)(C)C1=O [Compound T27]	–	–	–	–	–	50	20	30	0	30
CSc1ccc(-c2nc(C3C(=O)C(C)(C)OC(C)(C)C3=O)c(C)s2)cc1 [Compound T67]	–	–	–	–	–	70	0	0	0	90
